According to EP4506341A1, “TISSUE REGENERATION APPROACHES” (ZeCardio Therapeutics SL, priority 2023, dated 2025):

Legend:
Tob1 KO H9C2 cells = experiment: MTT proliferation assay in Tob1 knockout H9C2 cells; type: cell-based; conditions: Rattus norvegicus; Tob1 depleted (KO) H9C2 cells; proliferation by MTT, 144 hours
Procedure: 100.000 H9C2 cells were plated in a 24 well plate day before transfection with lipofectamine CRISPRMAX™ (Thermofisher, CMAX00001), to obtain a 70% of confluence. The CRISPRMAX™ assay was performed following the manufacturer's instructions. Briefly Cas9 nuclease/gRNA RNP complexes were prepared by combining the following components , 3,85 µ! of 2 µM Alt-R S.p. Cas9 Nuclease v3 (1081059, IDT)1; 2,25 µ! of 2 µM sgRNAs (Tob1 sgRNA1: […] (SEQ ID NO: 3) and Tob1 sgRNA2: […] (SEQ ID NO: 4), negative control: GCACUACCAGAGCUAA (SEQ ID NO: 5), Synthego), 2,5 µ! Cas9 plus reagent in 16,65 µl Opti-MEM™(Gibco™; Life Technologies, Grand Island, NY, USA) in tube 1 and 1,5 µl lipofectamine CRISPRMAX™ in 25 µ! in Opti-MEM™ in tube 2. The Cas9/sgRNA ribonucleoprotein (RNP) complex was obtained by incubating the mix of tub1 and 2 for 10 minutes at room temperature. 50 µL of the RNP complex was added to cells in 450 µL of fresh high glucose DMEM (ATCC, 30-2002), supplemented with 10 % FBS and without antibiotics and cells were incubated with the RNP complex for 48 h at 37 °C.
(§1) 3-(4,5-dimethylthiazol-2-yl)-2,5-diphenyltetrazolium bromide, MTT (Sigma, M5655-500MG) assay was used as a surrogate to evaluate cell number and cell proliferation in H9C2 and MCF-7 cells. MTT is a colorimetric assay that measures cell metabolic activity in viable cells, resulting from the activity of mitochondrial dehydrogenases which cleave the tetrazolium ring of the yellow tetrazolium salt MTT, yielding formazan crystals. The protocol was designed to align Tob1 peak decrease in mRNA expression levels (48-96 hours post-transfection) with the period of exponential growth of the cells (24-72 hours post-replating).
MCF-7 cells and H9C2 cells were seeded at 100,000 cells/well in 24-well in DMEM + 10% FBS plates to reach 80-90% at time of transfection. MCF-7 and H9C2 cells were transfected 24 hours post-plating with Silencer® Select siRNAs to knock down Tob1. 48 hours post-transfection, cells were lifted and plated at 10000 (MCF-7) and 8000 cells/well (H9C2) in 96-well plates and grown for 144 hours. […] 24 hours later, absorbance was measured at 590 nm with the spectrophotometer FLUOstar Omega plate reader (BMG LabTech).
(§2) Both Tob1 expressing and Tob1 knockout H9C2 cells were seeded at 8000 cells/well in 96-well plates. 48 hours later, cells were treated with 1.28 nM; 6.4 nM; 32 nM, 160nM, 800 nM, 4 µM and 20 µM ZXR-807, ZXR-810; ZXR-081 and ZXR-090 and cell proliferation was measured 144 hours post-treatment using the MTT assay as described above.
Tob1 inhibitors selectivity was assessed by comparing dose-responses of ZXR-807, ZXR-810, ZXR-081 and ZXR-090 in H9C2 control cells and H9C2 Tob1 KO cells where Tob1 was depleted by CRISPR/Cas9 technology. […]

hiPSC cardiomyocytes [1] = experiment: CellTiter-Glo proliferation assay in hiPSC-CMs; type: cell-based, Human; conditions: 8nM
Procedure: Human Induced pluripotent stem-cell derived (iPS-CMs) cardiomyocytes (iCell® Cardiomyocytes, Cat. No. 11713) were purchased from FUJIFILM Cellular Dynamics. hiPSC Cardiomyocytes were seeded into 96 well plates coated with 0,1% gelatin (STEMCELL tech, 07903) with iCell Cardiomyocytes plating medium (Fujifilm, M1001). After 48 hours, the medium was changed to iCell Cardiomyocytes maintenance medium (Fujifilm, M1003) and cells were cultured for 2 weeks with media replacement every 48-72 hours. Cells were maintained in a humidified incubator (Thermo Scientific,HERACELL 150i) in a 95% air 5% CO2 environment at 37 °C
CellTitler-Glo® (Promega, G7570) was used to measure the activity of the compounds of the invention in triggering proliferation in hiPSC-CMs. The CellTiter-Glo® Luminescent Cell Viability Assay, similar to the MTT assay but with higher sensitivity, determines the number of metabolically active and viable cells, and is based on the quantification of ATP levels in the cells.
hiPSC-CMs were seeded at 7000 cells/well in 96-well plates and treated with the compounds of the invention at 8; 40 and 200nM in a 0.3% DMSO containing iCell Cardiomyocyte medium and a control treatment or vehicle with 0.3% DMSO in iCell cardiomyocyte medium. hiPSC-CMs proliferation was measured after 144h (6 days) , and 336 (14 days) of treatment. At each time point, 100 µL of CellTiter Glo (ratio 1:1 CellTiter Glo: cell culture medium ) was added to each well containing 100 µL iCell Cardiomyocyte medium, following the manufacturer's instructions. Luminescence was read in Varioskan (Thermo Fisher Scientific), 30 minutes after adding the reagent.

Ki67 = experiment: Nuclear Ki67 immunostaining in hiPSC-CMs after migration assay; type: cell-based, Human; conditions: 8 nM, 144 hrs, hiPSC cardiomyocytes
Procedure: (§3) hiPSC-CMs cells were seeded at 25,000 cells per well in 96 wells plates. 168 hours after seeding, cells were scraped with a 200 µL tip and treated with 8, 40 and 200nM ZXR-807, ZXR-810, ZXR-081 and ZXR-090. Plates were imaged with an inverted microscope (Leica, DMI6000B) right after generating the wound (0 h) and 144 hours post-scraping.
Following the migration assay, the medium was aspirated from the 96-well plates, and cells were washed twice with phosphate buffered saline solution (PBS) 1x (Fisher bioreagents, BP399-4). Cells were fixed with 4% paraformaldehyde (Sigma, 158127) for 10 minutes at room temperature and washed 3 times with PBS 1x. Cells were permeabilized with Triton™ X-100, 0.03% (Merck, T8787) and blocked with 0.5% Goat serum (ThermoFisher, 16210064) in PBS 1x, during 1 hour at room temperature. The primary antibodies Ki67 rabbit antibody 1/100 (Santacruz, sc-23900), and cardiac Troponin (cTnT mouse antibody 1/100 (ThermoFisher, MA5-12960) were diluted in the following buffer: Triton™ X-100 0.03% and 1% Bovine serum albumin (BSA) 10% (nzytech, MB04602) and PBS 1x. hiPSC-CMs were incubated with the primary antibodies overnight at 4°C, washed three times with PBS 1x and incubated with the secondary antibodies goat anti-mouse or anti -rabbit coupled to Alexa fluorescent dyes (company). DAPI 1/1000 (Merck, D9542-5MG) was incubated for 20 min at room temperature to visualize nuclei. Cells were washed out 3x with PBS and kept in PBS at 4°C.
Preparations were examined on a fluorescent inverted microscope Leica, DMI6000B using 20x dry objectives from Leica. Images were analyzed with the open source image processing package Fiji to quantify Nuclear Ki67 fluorescent intensity and cellular cardiac troponin T (cTnT) normalized to the number of nuclei in the field of view

H9C2 cells = experiment: MTT proliferation assay in Tob1 expressing (control) H9C2 cells; type: cell-based, rat; conditions: for H9C2 % Proliferation (normalized to control): 4 microMolar, MTT assay after 144 hours, increase above control values; for EC50 in H9C2 cells lower than EC50 in Tob1 KO H9C2 cells (selectivity for Tob1): H9C2 control vs Tob1 KO H9C2 cells, MTT; for EC50: Rattus norvegicus, H9C2 control cells, proliferation by MTT, 144 hours, 1,28 nM to 20 µM
Procedure: as §1
MCF-7 cells and H9C2 cells were seeded at 100,000 cells/well in 24-well in DMEM + 10% FBS plates to reach 80-90% at time of transfection. MCF-7 and H9C2 cells were transfected 24 hours post-plating with Silencer® Select siRNAs to knock down Tob1. 48 hours post-transfection, cells were lifted and plated at 10000 (MCF-7) and 8000 cells/well (H9C2) in 96-well plates and grown for 144 hours. At day 6 (144 hours), 0,5 mg/ml MTT was added and incubated for 3 hours, producing formazan crystals that were solubilized with SDS 20%+ HCl 0.02N. 24 hours later, absorbance was measured at 590 nm with the spectrophotometer FLUOstar Omega plate reader (BMG LabTech).
as §2
Once lead compounds were selected, their efficacy, potency and selectivity at promoting proliferative responses, were evaluated in vitro in rat cardiomyoblasts (H9C2 cells) using MTT assay. H9C2 cells were treated with vehicle 0,3% DMSO and increasing concentrations of Tob1 inhibitors: ZXR-807, ZXR-810, ZXR-081 and ZXR-090, (1,28 nM to 20 µM), followed by the assessment of proliferation, using the MTT assay, after cells were left to grow for 144 hours (6 Days).

hiPSC cardiomyocytes [2] = experiment: Cell migration (wound healing) assay in hiPSC-CMs; type: cell-based, Human; conditions: 8 nM, 144 hours
Procedure: as §3
All images were analyzed using the Fiji software (Schindelin et al., 2012) and the amount of cellular migration was determined by calculating the wound area at 0h and 28 hours or 144 hours and normalized to control vehicle-treated cells (0,3% DMSO).

Cdk1 = experiment: Real time PCR of proliferation marker gene Cdk1 in H9C2 cells; type: cell-based, rat; conditions: 100 nM in H9C2 cells; for Cdk1 mRNA expression increase: normalized to vehicle-treated cells
Procedure: (§4) In order to evaluate 1) efficiency of Tob1 knockdown in MCF-7 and H9C2 cells and 2) expression levels of proliferation markers (Pcna, Cdk1 and Ccnb1) in H9C2 cells treated with the compounds of the invention, H9C2 cells were harvested by trypsinization and centrifuged at 300 x g for 5 min. Total mRNA was isolated using the Maxwell 16 LEV simplyRNA Cells Kit or Tissue Kit (Promega, Madison, WI) following the manufacturer's instructions. Nanodrop ND-1000 Spectrophotometer (Thermo Fisher Scientific, Waltham, MA) was used to quantity the amount of RNA extracted. cDNA synthesis was performed from 300 ng of total RNA with the SuperScript IV First-Strand Synthesis System (Thermo Fisher Scientific, Waltham, MA).
(§5) Real-time PCR was conducted using LightCycler 480 SYBR Green I Master on a LightCycler 480 thermal cycler (Roche, Basel, Switzerland). The expression levels of the indicated genes were calculated by the conventional 2^-DDCt method, with normalization to housekeeping gene glyceraldehyde-3-phosphate dehydrogenase (GAPDH).

Ccnb1 = experiment: Real time PCR of proliferation marker gene Ccnb1 in H9C2 cells; type: cell-based, rat; conditions: 100 nM in H9C2 cells
Procedure: as §4, §5

Structure (SMILES)	EC50 (Tob1 KO H9C2 cells) [nM]	increase of proliferation rate of hiPSC cardiomyocytes (hiPSC cardiomyocytes [1]; 144 hours (6 days))	time course of effect on proliferation increase (in words) (hiPSC cardiomyocytes [1]; peaking at 144 hours and disappearing by 336 hours)	nuclear Ki67 expression away from the scratch (Ki67)	nuclear Ki67 signal intensity close to the scratch (Ki67)	H9C2 % Proliferation (normalized to control) (H9C2 cells)	EC50 in H9C2 cells lower than EC50 in Tob1 KO H9C2 cells (selectivity for Tob1) (H9C2 cells)	cell migration of hiPSC-CMs (in words) (hiPSC cardiomyocytes [2])	Cdk1 mRNA expression increase (Cdk1)	EC50 (H9C2 cells) [nM]	Ccnb1 expression (in words) (Ccnb1)	increase of proliferation rate of hiPSC cardiomyocytes (hiPSC cardiomyocytes [1]; 336 hours (14 days)) [%]	transcriptional activation of Cdk1 (in words) (Cdk1)
Cl.N[C@H]1C[C@@H](C(=O)N2CCOCC2)[C@H](c2ccc(Cl)cc2)C1 (relative stereo) [ZXR-081, rel-[(1R,2R,4R)-4-amino-2-(4-chlorophenyl)cyclopentyl]-morpholino-methanone hydrochloride]	177	20-28%	transitory effect	increased	significantly increased	36,6%	< 60,000	activate cell migration	about 3 fold				
CC(=O)N[C@H]1C[C@@H](C(=O)N2CCOCC2)[C@H](c2ccc(Cl)cc2)C1 (relative stereo) [ZXR-090, rel-N-[(1R,3R,4R)-3-(4-chlorophenyl)-4-(morpholine-4-carbonyl)cyclopentyl]acetamide]	62.8					26,6%	200-300	activate cell migration	about 3 fold	0.128	more moderately increased		
N[C@H]1C[C@@H](C(=O)N2CCSCC2)[C@H](c2ccc(Cl)cc2)C1 (relative stereo) [ZXR-807, rel-[(1R,2R,4R)-4-amino-2-(4-chlorophenyl)cyclopentyl]-thiomorpholino-methanone]	82.8	20-28%		increased		27,4%	< 60,000	activate cell migration			more moderately increased	40	promote the transcriptional activation
CC(C)N(C)C(=O)[C@@H]1C[C@H](N)C[C@H]1c1ccc(Cl)cc1 (relative stereo) [ZXR-810, rel(1R,2R,4R)-4-amino-2-(4-chlorophenyl)-N-isopropyl-N-methyl-cyclopentanecarboxamide]	62.8	20-28%		increased		26.5%	200-300	activate cell migration		0.62	more moderately increased	40	promote the transcriptional activation
